# Patent publication EP0454060B1, “3-(Mercaptoalkyl)-quinazoline-2,4(1H,3H)-diones, processes for their preparation, and pharmaceutical compositions” (priority 1990, dated 1991)
# Like-named read-outs stand apart in the source and are kept apart here.
# Assays:
# [1] = test system: primären Hühnerembryonalzellen (2 Tage alt); assay: Cell tolerance, microscopic reading; format: cell-based, Hühner; design: key: 0̸: Am 5. Tag der mikroskopischen Ablesung keine morphologischen Veränderungen der Zellen.; ++++: Komplette Veränderungen der Zellschicht in Form von Abrundung, Granulierung und Ablösen der Zellen von der Glaswand.; +++: Analoge Veränderungen bei 3/4 des Zellrasens.; ++: Analoge Veränderungen bei 1/2 des Zellrasens.; +: Analoge Veränderungen bei 1/4 des Zellrasens; details: HEZ, reading day 5
# Excerpt: (§1) 0̸ = Am 5. Tag der mikroskopischen Ablesung keine morphologischen Veränderungen der Zellen. ++++ = Komplette Veränderungen der Zellschicht in Form von Abrundung, Granulierung und Ablösen der Zellen von der Glaswand. +++ = Analoge Veränderungen bei 3/4 des Zellrasens. ++ = Analoge Veränderungen bei 1/2 des Zellrasens. + = Analoge Veränderungen bei 1/4 des Zellrasens.
# Coxsackie A 9-Virus = assay: Antiviral test in vitro; format: cell-based
# [2] = test system: Human-Fibroblasten (2 Tage alt); assay: Cell tolerance, microscopic reading; format: cell-based; design: key: 0̸: Am 5. Tag der mikroskopischen Ablesung keine morphologischen Veränderungen der Zellen.; ++++: Komplette Veränderungen der Zellschicht in Form von Abrundung, Granulierung und Ablösen der Zellen von der Glaswand.; +++: Analoge Veränderungen bei 3/4 des Zellrasens.; ++: Analoge Veränderungen bei 1/2 des Zellrasens.; +: Analoge Veränderungen bei 1/4 des Zellrasens; details: HFi, reading day 5
# Excerpt: as §1
# [3] = test system: MDBK (bovine Nierenzellen-Permanentzellinie); assay: Cell tolerance, microscopic reading; format: cell-based; design: key: 0̸: Am 5. Tag der mikroskopischen Ablesung keine morphologischen Veränderungen der Zellen.; ++++: Komplette Veränderungen der Zellschicht in Form von Abrundung, Granulierung und Ablösen der Zellen von der Glaswand.; +++: Analoge Veränderungen bei 3/4 des Zellrasens.; ++: Analoge Veränderungen bei 1/2 des Zellrasens.; +: Analoge Veränderungen bei 1/4 des Zellrasens; details: MDKB, reading day 5
# Excerpt: as §1
# [4] = test system: RH (humane Nierenzellen-Permanentzellinie); assay: Cell tolerance, microscopic reading; format: cell-based; design: key: 0̸: Am 5. Tag der mikroskopischen Ablesung keine morphologischen Veränderungen der Zellen.; ++++: Komplette Veränderungen der Zellschicht in Form von Abrundung, Granulierung und Ablösen der Zellen von der Glaswand.; +++: Analoge Veränderungen bei 3/4 des Zellrasens.; ++: Analoge Veränderungen bei 1/2 des Zellrasens.; +: Analoge Veränderungen bei 1/4 des Zellrasens; details: reading day 5
# Excerpt: as §1
# Vaccinia Lister [5] = assay: One-step replication cycle on permanent human kidney cell line
# Vaccinia Lister [6] = format: cell-based, Vaccinia-Virus; details: for % Hemmung / Senkung des Virusertrages im Vergleich zur unbehandelten Kontrolle: Vaccinia Lister
# Influenza A/WSN = assay: One-step replication cycle on chick embryo cells; format: cell-based, Influenza-Virus; details: for % Hemmung / Senkung des Virusertrages im Vergleich zur unbehandelten Kontrolle: Influenza A/WSN
# [7] = test system: Vesicular-stomatitis Indiana; assay: One-step replication cycle on chick embryo cells; format: cell-based; details: Beispielreihe 2, HEZ
# [8] = test system: Herpes simplex Typ 1 Kupka; assay: One-step replication cycle on permanent human kidney cell line
# [9] = 125 µmol/l in maintenance medium
# [10] = 250 µmol/l in maintenance medium
# [11] = 500 µmol/l in maintenance medium
# [12] = 1000 µmol/l in maintenance medium
# [13] = 62,5 µmol/l in maintenance medium
# [14] = Beispielreihe 3, 125 µmol/l, mean of two experiments
# [15] = Beispielreihe 3, 250 µmol/l, mean of two experiments
# [16] = Beispielreihe 2, HEZ, 125 µmol/l, mean of three experiments
# [17] = Beispielreihe 2, HEZ, 250 µmol/l, mean of three experiments
# [18] = Beispielreihe 2, HEZ, 31,25 µmol/l, mean of three experiments
# [19] = Beispielreihe 2, HEZ, 31,25 µmol/l, mean of three experiments, 31.25 µM
# [20] = Beispielreihe 2, HEZ, 62,5 µmol/l, mean of three experiments
# [21] = Beispielreihe 2, HEZ, 62,5 µmol/l, mean of three experiments, 62.5 µM
# [22] = 250 µmol/l, mean of three experiments
# [23] = Beispielreihe 3, Herpes simplex Typ 1 Kupka, 125 µmol/l, mean of two experiments
# [24] = Beispielreihe 3, Herpes simplex Typ 1 Kupka, 250 µmol/l, mean of two experiments
# [25] = Beispielreihe 5b, Hühnerembryonalfibroblasten, 125 µmol/l
# [26] = Beispielreihe 5b, Hühnerembryonalfibroblasten, 250 µmol/l
# [27] = Beispielreihe 5b, Hühnerembryonalfibroblasten, 62,5 µmol/l
# [28] = Beispielreihe 5b, Hühnerembryonalfibroblasten, 62,5 µmol/l, 62.5 µM
# [29] = Beispielreihe 5a, Herpes simplex Typ 1, 125 µmol/l
# [30] = Beispielreihe 5a, Herpes simplex Typ 1, 250 µmol/l
smiles,measurement,setting,value
"O=c1[nH]c2ccccc2c(=O)n1CCS [Beispiel 1, 3-(2-Mercaptoethyl)-chinazolin-2,4(1H,3H)-dion]",Zellverträglichkeit,[1]; [9],0̸
same,Zellverträglichkeit,[1]; [10],0̸
same,Zellverträglichkeit,[1]; [11],+
same,Zellverträglichkeit,[1]; [12],+++
same,Zellverträglichkeit,[1]; [13],0̸
same,antivirale Wirkung,Coxsackie A 9-Virus,nicht antiviral wirksam
same,Zellverträglichkeit,[2]; [9],0̸
same,Zellverträglichkeit,[2]; [10],0̸
same,Zellverträglichkeit,[2]; [11],0̸
same,Zellverträglichkeit,[2]; [12],++
same,Zellverträglichkeit,[2]; [13],0̸
same,Zellverträglichkeit,[3]; [9],0̸
same,Zellverträglichkeit,[3]; [10],0̸
same,Zellverträglichkeit,[3]; [11],++
same,Zellverträglichkeit,[3]; [12],++++
same,Zellverträglichkeit,[3]; [13],0̸
same,Zellverträglichkeit,[4]; [9],0̸
same,Zellverträglichkeit,[4]; [10],0̸
same,Zellverträglichkeit,[4]; [11],++
same,Zellverträglichkeit,[4]; [12],+++
same,Zellverträglichkeit,[4]; [13],0̸
same,% Hemmung,Vaccinia Lister [5]; [14],"> 99,99%"
same,Senkung des Virusertrages im Vergleich zur unbehandelten Kontrolle,Vaccinia Lister [5]; [14],"> 4,0 log10 TCID50/0,2 ml"
same,% Hemmung,Vaccinia Lister [5]; [15],"> 99,99%"
same,Senkung des Virusertrages im Vergleich zur unbehandelten Kontrolle,Vaccinia Lister [5]; [15],"> 4,0 log10 TCID50/0,2 ml"
same,Senkung des Virusertrages im Vergleich zur unbehandelten Kontrolle,"Vaccinia Lister [5]; Beispielreihe 3, 31,25 µmol/l, mean of two experiments","3,5 log10 TCID50/0,2 ml"
same,% Hemmung,"Vaccinia Lister [5]; Beispielreihe 3, 31,25 µmol/l, mean of two experiments, 31.25 µM","> 99,9%"
same,Senkung des Virusertrages im Vergleich zur unbehandelten Kontrolle,"Vaccinia Lister [5]; Beispielreihe 3, 62,5 µmol/l, mean of two experiments","4,0 log10 TCID50/0,2 ml"
same,% Hemmung,"Vaccinia Lister [5]; Beispielreihe 3, 62,5 µmol/l, mean of two experiments, 62.5 µM","99,99%"
same,% Hemmung,Vaccinia Lister [6]; [16],"99,99%"
same,Senkung des Virusertrages im Vergleich zur unbehandelten Kontrolle,Vaccinia Lister [6]; [16],"4,0 log10 TCID50/0,2 ml"
same,% Hemmung,Vaccinia Lister [6]; [17],"> 99,99%"
same,Senkung des Virusertrages im Vergleich zur unbehandelten Kontrolle,Vaccinia Lister [6]; [17],"5,67 log10 TCID50/0,2 ml"
same,Senkung des Virusertrages im Vergleich zur unbehandelten Kontrolle,Vaccinia Lister [6]; [18],"1,0 log10 TCID50/0,2 ml"
same,% Hemmung,Vaccinia Lister [6]; [19],"99,0%"
same,Senkung des Virusertrages im Vergleich zur unbehandelten Kontrolle,Vaccinia Lister [6]; [20],"2,5 log10 TCID50/0,2 ml"
same,% Hemmung,Vaccinia Lister [6]; [21],"99,68%"
same,Therapeutischer Index = Verhältnis von maximal verträglicher und minimal wirksamer Dosis,"Vaccinia Lister [6]; für Vaccinia-Virus, HEZ",8
same,% Hemmung,Influenza A/WSN; [16],"> 99,99%"
same,Senkung des Virusertrages im Vergleich zur unbehandelten Kontrolle,Influenza A/WSN; [16],"4,67 log10 TCID50/0,2 ml"
same,% Hemmung,Influenza A/WSN; [17],"> 99,99%"
same,Senkung des Virusertrages im Vergleich zur unbehandelten Kontrolle,Influenza A/WSN; [17],"6,23 log10 TCID50/0,2 ml"
same,Senkung des Virusertrages im Vergleich zur unbehandelten Kontrolle,Influenza A/WSN; [18],"2,5 log10 TCID50/0,2 ml"
same,% Hemmung,Influenza A/WSN; [19],"99,50%"
same,Senkung des Virusertrages im Vergleich zur unbehandelten Kontrolle,Influenza A/WSN; [20],"4,25 log10 TCID50/0,2 ml"
same,% Hemmung,Influenza A/WSN; [21],"> 99,99%"
same,Therapeutischer Index = Verhältnis von maximal verträglicher und minimal wirksamer Dosis,"Influenza A/WSN; für Influenza-Virus, HEZ",8
same,Senkung des Virusertrages im Vergleich zur unbehandelten Kontrolle,"[7]; 125 µmol/l, mean of three experiments","0,5 log10 TCID50/0,2 ml"
same,% Hemmung,"[7]; 125 µmol/l, n.s. = nicht signifikant",n. s.
same,% Hemmung,[7]; [22],"99,9%"
same,Senkung des Virusertrages im Vergleich zur unbehandelten Kontrolle,[7]; [22],"3,0 log10 TCID50/0,2 ml"
same,% Hemmung,[8]; [23],"> 99,99%"
same,Senkung des Virusertrages im Vergleich zur unbehandelten Kontrolle,[8]; [23],"5,5 log10 TCID50/0,2 ml"
same,% Hemmung,[8]; [24],"> 99,99%"
same,Senkung des Virusertrages im Vergleich zur unbehandelten Kontrolle,[8]; [24],"6,0 log10 TCID50/0,2 ml"
same,Senkung des Virusertrages im Vergleich zur unbehandelten Kontrolle,"[8]; Beispielreihe 3, Herpes simplex Typ 1 Kupka, 62,5 µmol/l, mean of two experiments","0,75 log10 TCID50/0,2 ml"
same,% Hemmung,"[8]; Beispielreihe 3, Herpes simplex Typ 1 Kupka, 62,5 µmol/l, n. s. = nicht signifikant",n. s.
"COc1cc2[nH]c(=O)n(CCCS)c(=O)c2cc1OC [Beispiel 2, 3-(3-Mercaptoprop-1-yl)-6,7-dimethoxychinazolin-2,4(1H,3H)-dion]",% Hemmung,"Vaccinia Lister [5]; Beispielreihe 5a, 125 µmol/l","> 99,99%"
same,Senkung des Virusertrages im Vergleich zur unbehandelten Kontrolle,"Vaccinia Lister [5]; Beispielreihe 5a, 125 µmol/l","5,0 log10 TCID50/0,2 ml"
same,% Hemmung,"Vaccinia Lister [5]; Beispielreihe 5a, 250 µmol/l","> 99,99%"
same,Senkung des Virusertrages im Vergleich zur unbehandelten Kontrolle,"Vaccinia Lister [5]; Beispielreihe 5a, 250 µmol/l","5,0 log10 TCID50/0,2 ml"
same,Senkung des Virusertrages im Vergleich zur unbehandelten Kontrolle,"Vaccinia Lister [5]; Beispielreihe 5a, 31,25 µmol/l","2,84 log10 TCID50/0,2 ml"
same,% Hemmung,"Vaccinia Lister [5]; Beispielreihe 5a, 31,25 µmol/l, 31.25 µM","99,84%"
same,Senkung des Virusertrages im Vergleich zur unbehandelten Kontrolle,"Vaccinia Lister [5]; Beispielreihe 5a, 62,5 µmol/l","5,0 log10 TCID50/0,2 ml"
same,% Hemmung,"Vaccinia Lister [5]; Beispielreihe 5a, 62,5 µmol/l, 62.5 µM","> 99,99%"
same,% Hemmung,Vaccinia Lister [6]; [25],"> 99,99%"
same,Senkung des Virusertrages im Vergleich zur unbehandelten Kontrolle,Vaccinia Lister [6]; [25],"5,0 log10 TCID50/02 ml"
same,% Hemmung,Vaccinia Lister [6]; [26],"> 99,99%"
same,Senkung des Virusertrages im Vergleich zur unbehandelten Kontrolle,Vaccinia Lister [6]; [26],"5,0 log10 TCID50/02 ml"
same,Senkung des Virusertrages im Vergleich zur unbehandelten Kontrolle,"Vaccinia Lister [6]; Beispielreihe 5b, Hühnerembryonalfibroblasten, 31,25 µmol/l","3,0 log10 TCID50/02 ml"
same,% Hemmung,"Vaccinia Lister [6]; Beispielreihe 5b, Hühnerembryonalfibroblasten, 31,25 µmol/l, 31.25 µM","99,9%"
same,Senkung des Virusertrages im Vergleich zur unbehandelten Kontrolle,Vaccinia Lister [6]; [27],"3,5 log10 TCID50/02 ml"
same,% Hemmung,Vaccinia Lister [6]; [28],"99,93%"
same,% Hemmung,Influenza A/WSN; [25],"> 99,99%"
same,Senkung des Virusertrages im Vergleich zur unbehandelten Kontrolle,Influenza A/WSN; [25],"5,0 log10 TCID50/02 ml"
same,% Hemmung,Influenza A/WSN; [26],"> 99,99%"
same,Senkung des Virusertrages im Vergleich zur unbehandelten Kontrolle,Influenza A/WSN; [26],"5,0 log10 TCID50/02 ml"
same,Senkung des Virusertrages im Vergleich zur unbehandelten Kontrolle,Influenza A/WSN; [27],"2,0 log10 TCID50/02 ml"
same,% Hemmung,Influenza A/WSN; [28],"99,0%"
same,% Hemmung,[8]; [29],"> 99,99%"
same,Senkung des Virusertrages im Vergleich zur unbehandelten Kontrolle,[8]; [29],"6,5 log10 TCID50/0,2 ml"
same,% Hemmung,[8]; [30],"> 99,99%"
same,Senkung des Virusertrages im Vergleich zur unbehandelten Kontrolle,[8]; [30],"6,5 log10 TCID50/0,2 ml"
same,Senkung des Virusertrages im Vergleich zur unbehandelten Kontrolle,"[8]; Beispielreihe 5a, Herpes simplex Typ 1, 31,25 µmol/l","3,67 log10 TCID50/0,2 ml"
same,% Hemmung,"[8]; Beispielreihe 5a, Herpes simplex Typ 1, 31,25 µmol/l, 31.25 µM","99,97%"
same,Senkung des Virusertrages im Vergleich zur unbehandelten Kontrolle,"[8]; Beispielreihe 5a, Herpes simplex Typ 1, 62,5 µmol/l","5,0 log10 TCID50/0,2 ml"
same,% Hemmung,"[8]; Beispielreihe 5a, Herpes simplex Typ 1, 62,5 µmol/l, 62.5 µM","> 99,99%"
